# Non-standard residues stand in square brackets, D forms with d. No end group written: not given here.
# How the values were obtained:
# [1] = tested on: carrageenan-induced hyperalgesia in rat paw; assay: Carrageenan-induced hyperalgesia in rat paw (modified Randell-Selitto paw withdrawal method); format: in vivo, albino rats; details: 3 mg carrageenan, 70 nanogram peptide
# Experimental: To establish the efficacy of the disclosed peptide inhibitors of NF-κB activity in analgesia, hyperalgesia was induced in rat paws with injections of carrageenan. The experiment is as described in Example 5. Injection of carrageenan in a hind paw of rats produced severe hyperalgesia. […] Only the results with peptide SEQ ID NO:042 are shown here.
# The ability of the disclosed peptides to affect nociception was determined using a modification of the Randell-Selitto paw withdrawal method. Groups (n=6) of healthy albino rats were injected in the paw with 3 mg carrageenan alone in phosphate buffered saline (PBS). […] As inflammation became obvious (15 min) in carrageenan-treated animals, test animals were injected with 70 nanogram of peptide SEQ ID NO:001, or peptide SEQ ID NO:042 in PBS. The animals are allowed to walk on a metal grid before and after injecting the drugs and the observations were noted. The scoring system was based on normal gait=1, marked limping=0.5, and three legged gait=0. The scores are transformed into percent analgesia and subjected to statistical analysis. The two peptides gave very similar results. The results shown in FIG. 10 are from animals treated with peptide SEQ ID NO:042.
# [2] = tested on: carrageenan-induced inflammation in rat paw; assay: Carrageenan-induced paw edema (plethysmometer); format: in vivo, albino rats
# Source text: INFLAMMATORY DISEASES AND FIBROTIC DISEASES: NF-κB is a prototypical proinflammatory signaling pathway, based on the activation of NF-κB by proinflammatory cytokines such as interleukin 1 (IL-1) and tumor necrosis factor a (TNF-α), and the subsequent role of NF-κB in the expression of other proinflammatory genes including cytokines, chemokines, and adhesion molecules. Inhibition of NF-κB can be expected to result in amelioration of inflammation. This was confirmed experimentally using peptide SEQ ID NO:042 in a standard model of carrageenan-induced inflammation in rat paw. This method measures acute inflammation induced by injection of carrageenan (Sakat et al., Inflammation 37(1):1-9 (2014)) and is used extensively to study antiinflammatory properties of drugs. Carrageenan is known to activate NF-κB (Bhattacharyya et al., Mediators of Inflammation, Vol. 2013, Article ID 397642; Bhattacharyya et al., American Journal of Physiology 301(3):G475-G486 (2011); Ellis et al., Ann. Rheum. Dis. 59:303-307 (2000); Pierce et al., J. Biol. Chem. 272:21096-21103 (1997)). Example 6 and FIG. 11 show the high efficacy of peptide SEQ ID NO:042 in alleviating edema and inflammation. […] Treatment of inflammation requires the subsidence of TNF-α and NF-κB pathways, which are part of the action of the disclosed peptides.
# Groups (n=6) of healthy albino rats were injected in the paw with 3 mg carrageenan alone in phosphate buffered saline (PBS). […] As inflammation became obvious (15 min) in carrageenan-treated animals, test animals were injected with 70 nanogram of peptide SEQ ID NO:001, or peptide SEQ ID NO:042 in PBS. A plethysmometer was used to measure paw edema at 0, 0.5, 1.0, 2.0, 3.0, 6.0, 12.0, and 24 hours after injections. […] In contrast, animals not receiving peptide continued to show significant inflammation at all time points.
# [3] = tested on: oral cancer cell line AW 13516; assay: Cell cycle analysis by flow cytometry (propidium iodide); format: cell-based
# Experimental: Cell cycle analysis was performed in oral cancer cell line AW 13516 after treatment with TGF-β alone, peptide alone or in combination. Cell cycle analysis was carried out using flow cytometry (Guava Technologies) using reagent kits provided by the instrument maker. The samples were prepared after propidium iodide staining and flow cytometric analysis was performed. TGF-β causes G1 arrest in cells as expected. The disclosed peptides in contrast markedly shortened the G1 phase and prolonged the S-phase, promoting a more faithful synthesis of DNA prior to cell division. Thus, the disclosed peptides have effects which differ from the effects of growth factors.
# p65 subunit of NF κB = assay: Western blot for p65 (NF κB) phosphorylation in SiHa cells; format: cell-based; details: Western blot (FIG. 4)
# smad2 [4] = assay: Phospho-Smad2 sandwich ELISA in HepG2 cells; format: cell-based; details: HepG2 cells (TBRII and TBRI present)
# Experimental: TGF-β signaling requires both receptors.
# (§1) Phosphorylation of smad2 was determined by Enzyme-Linked Immunosorbent Assay (ELISA) using a kit obtained from a commercial source. The Phospho-Smad2 Sandwich ELISA Kit is a solid phase sandwich enzyme-linked immunosorbent assay (ELISA) that recognizes endogenous levels of phospho-Smad2 (Ser465/467) and Smad3 (Ser423/425) proteins. A Smad2/3 Mouse Antibody has been coated on the microwells. After incubation with cell lysates, Smad2/3 proteins (phospho and nonphospho) are captured by the coated antibody. Following extensive washing, a Phospho-Smad2 (Ser465/467)/Smad3 (Ser423/425) Detection Antibody is added to detect captured phospho-Smad2 (Ser465/467) and phospho-Smad3 (Ser423/425) proteins. Anti-rabbit IgG, HRP-linked Antibody is then used to recognize the bound detection antibody. HRP substrate, TMB, is added to develop color. The magnitude of the absorbance for this developed color is proportional to the quantity of phospho-Smad2 (Ser465/467) and phospho-Smad3 (Ser423/425) proteins.
# smad2 [5] = assay: Phospho-Smad2 sandwich ELISA in MCF-7 cells (lack functional TBRII); format: cell-based; details: for phosphorylation of smad2: MCF-7 cells (do not express TBRII)
# Experimental: as §1
# NF κB = NF κB luciferase reporter assay (dual luciferase) in transfected SiHa cells; format: cell-based; details: 24 hours of treatment
# Experimental: SiHa cells (ATCC HTB-35) were seeded in the wells of a 96 well plate at 25,000 cells/well. The cells were transfected with the respective luciferase construct (p-SBE4, p-ARE-Luc in combination with FAST-1, p-NF κB) using Lipofectamine 2000 reagent (Invitrogen Technologies Inc.), as per the manufacturer's instructions. 18 hours post transfection; the cells were subjected to the respective treatments such as TGF-β, TNF-α, and the peptides. After 24 hours of treatment, the plates were removed from the incubator; medium from the cells was discarded. The wells were filled with 50 μl of PLB (passive lysis buffer) provided along with the Promega dual luciferase assay kit. The luciferase assay was performed as per the supplier's instruction manual, after transferring the lysates to a white plate for luminescence measurements. Expression of luciferase, and measurement of the resulting luminescence, thus provides a measurement of the extent of expression of NF-κB.
# As per the data in FIG. 2, the disclosed peptides inhibit TNF-α-activation of NF-κB. As per the data in FIG. 3, the disclosed peptide LFAP[D]EA (SEQ ID NO:013) inhibits both TNF-α-induced and constitutive activation of NF-κB. The ratio between the firely/renilla luciferase was used to compare TNF-α induced activation of NF-κB over constitutive NF-κB activity.
# [6] = tested on: chemically induced tumor in hamster cheek; assay: DMBA-induced oral tumor in hamster buccal pouch, topical peptide gel; format: in vivo, Syrian hamsters
# Experimental: A peptide inhibitor of NF κB activity disclosed herein was tested for treatment of induced oral tumors. Male Syrian hamsters aged 8 to 10 weeks weighing between 100 and 110 g were used. The animals were fed a standard pellet diet and water ad libitum, and were maintained in accordance with applicable ethical and institutional guidelines. The animals were randomized into 10 groups of 8 animals each, and the right buccal pouches of hamsters in groups 1-5 were painted with 0.5% 7,12-dimethylbenz[a]anthracene (DMBA) in liquid paraffin three times a week for 12 weeks.
# Mucoadhesive gels containing peptides were prepared by slowly adding Noveon AA1 (0.675% w/w) and Carbopol 971P NF (0.788% w/w) to purified water. The mixture was stirred at 1,025 rpm for one hour to allow full rehydration. Then 0.9% w/w glycerine, 2-phenoxyethanol, benzyl alcohol, and EDTA were added, followed by mixing at 875 rpm for one hour at room temperature. Finally, the desired peptide was added to the gel, and the gel mixed at 875 rpm for one hour to homogenize the gel (Kavitha et al., Biochimie 102:56-67 (2014); Mallery et al., Pharm Res. 24(4):728-737 (2007)).
# Hamsters in Group 1 received no further treatment. For hamsters in Groups 2 and 3, peptide gel was applied topically to the right buccal pouches of the hamsters from the 12th to the 18th week daily at concentrations of 10 microgram/ml (2.35 microgram dosage of peptide per application) and 100 microgram/ml (23.5 microgram dosage of peptide per application) respectively. Another group of animals painted with liquid paraffin alone served as control. The experiment was terminated after 18 weeks and all animals were sacrificed by cervical dislocation after an overnight fast.
Compound,% CELLS IN G1 Phase [3],% CELLS IN Go Phase [3],% CELLS IN M Phase [3],% CELLS IN S Phase [3],inhibition of phosphorylation of the p65 subunit of NF κB (p65 subunit of NF κB),also measured
YMAPEV [SEQ ID NO:001],,,,,,"nociception (hyperalgesia) [1]: markedly ameliorated nociception; paw edema pattern compared with peptide SEQ ID NO:042 ([2]; rat paw, 70 nanogram peptide, 0 to 24 hours): nearly identical patterns"
LIAPEA [SEQ ID NO:061],60.05%,2.33%,18.59%,19.03%,,
TWSPEL [SEQ ID NO:017],,,,,inhibition of phosphorylation,
TNWAEN [SEQ ID NO:015],,,,,inhibition of phosphorylation,
LWAEAK [SEQ ID NO:008],,,,,inhibition of phosphorylation,
LIANAK [SEQ ID NO:060],,,,,,phosphorylation of smad2 (smad2 [4]): induce phosphorylation; phosphorylation of smad2 (smad2 [5]): causing the phosphorylation of smad2
"SEQ ID NO:057: peptide of FIG. 8B (SEQ ID NOS:041 through 069), disclosed in U.S. Pat. Nos. 5,661,127, 5,780,436 and 6,638,912; sequence not printed (LIAGEG)",52.59%,14.59%,11.18%,21.63%,,
TGF-β,79.83%,8.32%,8.23%,3.62%,,phosphorylation of smad2 (smad2 [4]): induce phosphorylation; phosphorylation of smad2 (smad2 [5]): do not respond
LIAP[D]EA (LIAP[dE]A) [SEQ ID NO:014],62.69%,3.19%,13.52%,19.78%,,
LFAP[D]EA (LFAP[dE]A) [SEQ ID NO:013],62.05%,2.87%,14.86%,20.21%,,inhibition of constitutive activation of NF-κB (NF κB; Renilla luciferase): inhibits; inhibition of TNF-α-induced activation of NF-κB (NF κB; firefly luciferase): inhibits
ANVAENA [SEQ ID NO:042],62.73%,2.02%,19.10%,16.14%,,"histology of DMBA-treated tissue after peptide treatment ([6]; hamster cheek, FIG. 6C): an effect at the microscopic level; tumor growth in hamster cheek ([6]; topical, six weeks, 100 microgram/ml (23.5 microgram per application), after DMBA): marked inhibition of tumor growth; nociception (hyperalgesia) [1]: markedly ameliorated nociception; anti-inflammatory efficacy relative to that reported for celecoxib ([2]; compared with literature value for celecoxib): approximately 103 times; edema and inflammation at 2 h ([2]; rat paw, 3 mg carrageenan, 70 nanogram peptide, 2 h): significant decrease in edema and inflammation; inflammation by 3.0 h ([2]; rat paw, 3 mg carrageenan, 70 nanogram peptide, 3.0 h): subsided almost completely; inflammation up to 24 h post injection ([2]; rat paw, 3 mg carrageenan, 70 nanogram peptide, up to 24 h): no inflammation was noted"
"NC(=O)c1ccc(-c2nc(-c3ccc4c(c3)OCO4)c(-c3ccccn3)[nH]2)cc1 [SB431542, 4-[4-(1,3-benzodioxol-5-yl)-5-(2-pyridinyl)-1H-imidazol-2-yl]benzamide, reference compound]",,,,,,"effect on peptide-induced smad2 phosphorylation (smad2 [5]; MCF-7 cells, with peptide LIANAK): did not prevent smad2 phosphorylation"
TWAPES [SEQ ID NO:016],,,,,inhibition of phosphorylation,
